In BindingDB's records for doi:10.1021/jm00001a001 (Biochem Therapeutic, 1995):

Target: Reverse transcriptase/RNaseH (Human immunodeficiency virus 1, UniProt Q72547)
Experiment: Ability to inhibit the HIV-1 reverse transcriptase in cord blood mononuclear cells.

## Cc1cn([C@H]2C[C@H](N=[N+]=[N-])[C@@H](CO)O2)c(=O)[nH]c1=O [1-((2R,4S,5S)-4-Azido-5-hydroxymethyl-tetrahydro-furan-2-yl)-5-methyl-1H-pyrimidine-2,4-dione]
  IC50: 30 nM
